melting point [°C]	SMILES
96 to 97	CCc1c(Oc2ccc([N+](=O)[O-])cc2C(F)(F)F)nn(C(=O)NC)c1C
86 to 89	CCNC(=O)n1nc(Oc2c(Cl)cc(C(F)(F)F)cc2Cl)cc1CC [Example 163, N-ethyl-3-(2,6-dichloro-4-trifluoromethylphenyloxy)-5-ethylpyrazole-1-carboxamide]
111 to 112	CCNC(=O)n1nc(Oc2ncc(C(F)(F)F)cc2Cl)c(Cl)c1C [Compound 4-67, N-ethyl-4-chloro-3-(3-chloro-5-trifluoromethylpyridin-2-yloxy)-5-methylpyrazole-1-carboxamide]
102 to 104	CCNC(=O)n1nc(Oc2c(F)cc(C(F)(F)F)cc2F)cc1C [Example 124, N-ethyl-3-(2,6-difluoro-4-trifluoromethylphenyloxy)-5-methylpyrazole-1-carboxamide]
73 to 75	CCNC(=O)n1nc(Oc2cc(OCC)ccc2[N+](=O)[O-])cc1C [Example 99, N-ethyl-3-(5-ethoxy-2-nitrophenyloxy)-5-methylpyrazole-1-carboxamide]
157 to 158	CNC(=O)n1nc(Oc2ccc([N+](=O)[O-])cc2C(F)(F)F)c(Cl)c1C [Example 245, N-methyl-4-chloro-5-methyl-3-(4-nitro-2-trifluoromethylphenyloxy)pyrazole-1-carboxamide]
74 to 76	CCNC(=O)n1nc(Oc2ncc(Cl)cc2Cl)cc1C [Compound 4-15, N-ethyl-3-(3,5-dichloropyridin-2-yloxy)-5-methylpyrazole-1-carboxamide]
89 to 90	COCNC(=S)n1nc(Oc2ccc(C#N)cc2C(F)(F)F)cc1C [Example 177, N-methoxymethyl-3-(4-cyano-2-trifluoromethylphenyloxy)-5-methylpyrazole-1-carbothioamide]
63 to 65	CNC(=S)n1nc(Oc2ncc(C(F)(F)F)cc2Cl)cc1C
89 to 91	Cc1c(Cl)c(Oc2ccc(C(F)(F)F)cc2[N+](=O)[O-])nn1C(=O)NC(C)C [Example 243, N-isopropyl-4-chloro-5-methyl-3-(2-nitro-4-trifluoromethylphenyloxy)pyrazole-1-carboxamide]
89 to 91	CCc1cc(Oc2ccc(C(F)(F)F)cc2[N+](=O)[O-])nn1C(=O)NC
156 to 158	Cc1[nH]nc(Oc2c(Cl)cc(C(F)(F)F)cc2Cl)c1Cl [Compound 1-18, 4-chloro-3-(2,6-dichloro-4-trifluoromethylphenyloxy)-5-methylpyrazole]
87 to 89	Cc1cc(Oc2ccccc2C(F)(F)F)nn1C(=O)Nc1ccccc1
105 to 107	CCNC(=O)n1nc(Oc2ccc([N+](=O)[O-])cc2)cc1C [Example 54, N-ethyl-5-methyl-3-(4-nitrophenyloxy)pyrazole-1-carboxamide]
85 to 87	CCc1cc(Oc2ncc(C(F)(F)F)cc2Cl)nn1C(=O)NC

Reference: patent US7700786B2, “Pyrazole derivative, intermediate therefor, processes for producing these, and herbicide containing these as active ingredient” (Sagami Chemical Research Center, priority 2001, dated 2010)
